From BindingDB's records for patent US20250188057 (Merck Sharp & Dohme, 2025) come the findings set out here.

The target in this test is T1, Ceramide glucosyltransferase (Homo sapiens, UniProt Q16739).
T1 sequence (Q16739 whole entry): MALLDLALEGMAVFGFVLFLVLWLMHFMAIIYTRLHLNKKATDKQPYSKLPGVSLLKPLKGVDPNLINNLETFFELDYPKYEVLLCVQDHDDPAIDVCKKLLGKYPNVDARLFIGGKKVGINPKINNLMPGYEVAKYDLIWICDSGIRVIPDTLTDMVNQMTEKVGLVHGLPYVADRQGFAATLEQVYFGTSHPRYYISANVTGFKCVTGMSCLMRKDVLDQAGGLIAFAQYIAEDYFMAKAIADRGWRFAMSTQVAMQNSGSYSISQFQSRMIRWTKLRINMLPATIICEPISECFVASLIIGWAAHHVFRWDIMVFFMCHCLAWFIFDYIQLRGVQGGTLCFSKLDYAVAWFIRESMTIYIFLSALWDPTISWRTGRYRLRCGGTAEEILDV
Put plainly: UDP-Glo Glucosylceramide Synthase Biochemical Assay. The method, then: Using Promega's UDP-Glo™ Glycosyltransferase assay kit (Promega Corporation, Madison, WI, USA (Promega)), GCS activity was indirectly measured by detecting the amount of UDP produced. An aliquot of GCS enzyme (1.5 μg crude golgi preparation, total protein) and titrated test compound were aliquoted to each well and incubated for 30 minutes at room temperature. […] An equivalent volume of substrate mixture was then added to each well. Following a 20 h incubation at room temperature to allow for GCS turnover of substrate, an equal volume of UDP detection reagent (Promega) was added to each well and incubated for an additional 75 minutes at room temperature to simultaneously convert the accumulated UDP product into ATP and generate light in a luciferase reaction.

A word on the IC50: it is the concentration that inhibits the measured activity by half.

As to `CN1C(=O)CC(COc2nc(C3CC3)ncc2C#N)C1c1cccc(Cl)c1` (stereo unspecified) [US20250188057, Compound 101], the IC50 turned out to be 3.15 µM.
